Data as given in patent publication US20140066362A1, “METHOD FOR TREATING INFECTIONS BY TARGETING MICROBIAL H2S-PRODUCING ENZYMES” (NEW YORK UNIVERSITY, priority 2011, published 2014).

Assays:
CBS/CSE = assay type: cell-based, B. anthracis, S. aureus, P. aeruginosa; conditions: chemical inhibition of CSE (PAG) or CBS (AOAA), 18 hours culture
[1] = tested on: 3MST-deficient E. coli cells; assay type: cell-based; conditions: diamide 25 μM, gentamicin 50 μg/ml for 5 min
E. coli cells = assay type: cell-based; conditions: pretreatment for 3 min, 2,2′-dipyridyl 0.05 mM or thiourea 15 mM, then Gm
Wt E. coli cells = assay type: cell-based; conditions: then H2O2 2 mM for 10 min
recA′::gfp E. coli = assay type: cell-based; conditions: NaHS 200 μM, aspartate-treated cells
pBR322 plasmid DNA = assay: Electrophoresis assay of DNA damage in vitro (Fenton reaction); conditions: NaHS:Fe3+ 6:1, with Cys and H2O2, pH 8

Structure (SMILES): C#CCC(N)C(=O)O (racemic) [PAG, D,L-propargylglycine]
- Effect on H2S production (PbS staining) (CBS/CSE): greatly decreased or eliminated PbS staining

Structure (SMILES): CN(C)C(=O)/N=N/C(=O)N(C)C [diamide]
- Protection against Gm [1]: protected 3MST mutant cells against Gm

Structure (SMILES): NOCC(=O)O [AOAA, amino-oxyacetate]
- Effect on H2S production (PbS staining) (CBS/CSE): greatly decreased or eliminated PbS staining

Structure (SMILES): c1ccc(-c2ccccn2)nc1 [2,2′-dipyridyl]
- Effect on toxicity of Gm (E. coli cells): substantially decreased the toxicity of Gm
- Protection against peroxide (in words) (Wt E. coli cells; dipyridyl 0.5 mM pretreatment for 1 min): protected them rapidly against peroxide

Structure (SMILES): [Na+].[SH-] [NaHS]
- Effect on hyper-induction of SOS by gentamicin (recA′::gfp E. coli): completely suppressed the hyper-induction of SOS by gentamicin
- Increase in resistance to peroxide (Wt E. coli cells; NaHS 200 μM pretreatment for 1 min): > 20 times
- Inhibition of Fenton-mediated DNA damage (pBR322 plasmid DNA): completely inhibited DNA damage
